Data: patent US9650339B2, “Inhibitors of histone demethylases” (Gilead Sciences, Inc., priority 2013, dated 2017)
Like-named read-outs stand apart in the source and are kept apart here.

Key:
KDM4C (JMJD2C) = biological target: T1, KDM4C (JMJD2C) (Homo sapiens, UniProt Q9H3R0); test: Histone lysine demethylase AlphaLISA assay, KDM4C; format: biochemical
T1 sequence (Q9H3R0 1-349): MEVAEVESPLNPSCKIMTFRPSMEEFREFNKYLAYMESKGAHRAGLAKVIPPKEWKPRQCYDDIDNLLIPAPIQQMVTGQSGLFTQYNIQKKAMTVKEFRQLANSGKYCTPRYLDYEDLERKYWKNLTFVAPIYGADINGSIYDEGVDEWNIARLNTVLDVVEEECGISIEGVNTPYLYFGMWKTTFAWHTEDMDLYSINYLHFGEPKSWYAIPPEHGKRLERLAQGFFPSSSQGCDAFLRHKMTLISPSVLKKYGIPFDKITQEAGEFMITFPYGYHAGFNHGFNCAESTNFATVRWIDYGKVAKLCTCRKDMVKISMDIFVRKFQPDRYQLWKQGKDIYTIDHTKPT
Protocol: (§1) Assays are performed analogously to the protocol described by PerkinElmer (Roy et al. PerkinElmer Technical Note: AlphaLISA #12, April 2011)
(§2) Enzymes are dissolved in enzyme buffer and incubated for 10 min before being added to 3% DMSO solutions of compounds in enzyme buffer. Incubated for another 10 minutes, before substrate solution is added and the reaction mixture is incubated at room temperature. 10 μL acceptor beads, suspended in Epigenetic Buffer (Perkin Elmer AL008) from stock, are added and the suspension is incubated in the dark at room temperature, before a suspension of streptavidin donor beads (Perkin Elmer 6760002) in Epigenetic Buffer is added. After incubation at room temperature in the dark the plates are read.
BK9M3: Biotin-ARTKQTAR(KMe3)STGGKAPRKQ-NH2 (Caslo, Denmark) […]
(§3) Substrate Solution: Substrate, 25 μM L-Asc, and 10 μM α-KG in Buffer A.

KDM5B (PLU-1) = biological target: T2, KDM5B (PLU-1) (Homo sapiens, UniProt Q9UGL1); test: Histone lysine demethylase AlphaLISA assay, KDM5B; format: biochemical
T2 sequence (Q9UGL1 1-809): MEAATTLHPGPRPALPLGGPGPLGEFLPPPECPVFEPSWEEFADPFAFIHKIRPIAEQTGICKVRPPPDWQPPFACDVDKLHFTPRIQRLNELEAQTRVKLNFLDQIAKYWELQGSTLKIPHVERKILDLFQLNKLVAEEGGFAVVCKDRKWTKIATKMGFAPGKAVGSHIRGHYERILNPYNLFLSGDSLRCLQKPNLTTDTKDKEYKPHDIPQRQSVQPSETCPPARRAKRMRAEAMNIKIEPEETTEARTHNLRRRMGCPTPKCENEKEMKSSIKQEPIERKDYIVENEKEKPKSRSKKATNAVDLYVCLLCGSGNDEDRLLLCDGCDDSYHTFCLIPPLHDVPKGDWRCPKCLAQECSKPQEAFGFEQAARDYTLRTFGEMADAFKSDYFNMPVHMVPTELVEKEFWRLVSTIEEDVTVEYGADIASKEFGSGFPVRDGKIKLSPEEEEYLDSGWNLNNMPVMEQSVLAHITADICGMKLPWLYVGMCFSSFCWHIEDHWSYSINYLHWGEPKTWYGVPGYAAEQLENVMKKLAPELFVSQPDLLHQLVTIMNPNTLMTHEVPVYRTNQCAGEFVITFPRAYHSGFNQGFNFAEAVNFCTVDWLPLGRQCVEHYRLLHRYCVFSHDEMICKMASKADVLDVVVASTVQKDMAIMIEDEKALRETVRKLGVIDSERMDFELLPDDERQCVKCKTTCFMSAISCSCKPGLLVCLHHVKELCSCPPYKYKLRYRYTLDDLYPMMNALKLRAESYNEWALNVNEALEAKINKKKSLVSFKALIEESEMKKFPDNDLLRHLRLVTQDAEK
Protocol: as §1
as §2, with “read. […]” for “read.”
H3K4M3B: H-ART(Kme3)QTARKSTGGKAPRKQLA-NH-Biotin (Caslo, Denmark) […]
as §3

KDM6A (UTX) = KDM6A (UTX) (Homo sapiens, UniProt O15550); test: Histone lysine demethylase AlphaLISA assay, KDM6A; format: biochemical
Protocol: as §1
as §2, with “read. […]” for “read.”
BK27M3: Biotin-ATKAAR(Kme3)SAPATGGVKKPHRY-NH2? (Caslo, Denmark) […]
as §3

MCF7 cells = test: Cell proliferation assay MCF7; format: cell-based; conditions: MCF7 human breast cancer cells; 120 hours; ATPlite 1 Step
Protocol: MCF7 cells were seeded in multi well plates at a density optimized to give approximately 90% confluent cells at the time of harvest. Cells were incubated for 24 hours before addition of compound. Compounds were diluted in complete medium and added to the plates in duplicates. The final concentration of DMSO was maximum 0.5%. Complete medium used was DMEM with GlutaMAX containing 10% FBS and pen/strep.
120 hours after addition of compounds, the plates were harvested and analyzed by ATPlite 1 Step (Perkin Elmer, cat no 6016739) according to the manufactures recommendation.

KDM2B (FBXL10) = biological target: T3, KDM2B (FBXL10) (Homo sapiens, UniProt Q8NHM5); test: Histone lysine demethylase AlphaLISA assay, KDM2B; format: biochemical; conditions: read-out: KDM2B HDME Inhibition IC50
T3 sequence (Q8NHM5 1-650): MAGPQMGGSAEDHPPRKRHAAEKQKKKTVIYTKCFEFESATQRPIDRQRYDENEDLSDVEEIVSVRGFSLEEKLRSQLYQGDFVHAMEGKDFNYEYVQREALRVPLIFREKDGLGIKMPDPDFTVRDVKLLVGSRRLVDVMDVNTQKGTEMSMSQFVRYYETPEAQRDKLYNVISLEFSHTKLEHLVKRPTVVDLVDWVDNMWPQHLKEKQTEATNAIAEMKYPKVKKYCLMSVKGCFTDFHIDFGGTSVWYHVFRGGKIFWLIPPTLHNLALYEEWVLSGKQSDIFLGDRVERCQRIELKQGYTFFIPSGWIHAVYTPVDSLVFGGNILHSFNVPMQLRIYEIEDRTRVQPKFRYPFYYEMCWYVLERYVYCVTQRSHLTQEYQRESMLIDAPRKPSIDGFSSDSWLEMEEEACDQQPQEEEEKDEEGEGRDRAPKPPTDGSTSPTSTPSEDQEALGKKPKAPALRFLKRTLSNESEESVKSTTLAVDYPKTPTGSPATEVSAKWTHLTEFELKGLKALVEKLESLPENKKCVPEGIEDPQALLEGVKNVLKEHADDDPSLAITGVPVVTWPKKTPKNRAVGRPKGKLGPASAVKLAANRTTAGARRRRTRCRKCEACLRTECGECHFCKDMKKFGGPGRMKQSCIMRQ
Protocol: as §1
as §2, with “read. […]” for “read.”
BH3K36M2: RKAAPATGGVK(Me2)KPHRYRPGTVK-(BIOTIN)? (Anaspec)
as §3

[1] = read-out: KDM4C HDME Inhibition IC50
[2] = read-out: KDM5B HDME Inhibition IC50
[3] = read-out: KDM6A HDME Inhibition IC50

KDM6A (UTX), sequence (O15550 919-1401): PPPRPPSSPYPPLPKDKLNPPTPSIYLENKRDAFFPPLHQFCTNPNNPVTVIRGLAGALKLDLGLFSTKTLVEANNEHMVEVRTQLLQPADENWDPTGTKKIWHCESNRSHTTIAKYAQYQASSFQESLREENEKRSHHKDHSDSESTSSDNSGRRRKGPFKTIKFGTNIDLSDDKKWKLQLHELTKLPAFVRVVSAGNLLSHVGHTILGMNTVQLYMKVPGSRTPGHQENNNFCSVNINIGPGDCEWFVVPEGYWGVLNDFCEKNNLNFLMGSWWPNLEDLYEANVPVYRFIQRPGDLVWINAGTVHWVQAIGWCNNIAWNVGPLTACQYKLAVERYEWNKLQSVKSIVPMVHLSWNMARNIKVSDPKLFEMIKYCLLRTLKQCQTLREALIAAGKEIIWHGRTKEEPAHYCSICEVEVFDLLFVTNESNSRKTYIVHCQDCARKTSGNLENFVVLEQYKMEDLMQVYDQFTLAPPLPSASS

| EC50 (MCF7 cells) | IC50 (KDM2B (FBXL10)) | IC50 (KDM4C (JMJD2C); [1]) | IC50 (KDM5B (PLU-1); [2]) | IC50 (KDM6A (UTX); [3]) | SMILES | IC50 (KDM4C (JMJD2C)) | IC50 (KDM5B (PLU-1)) | IC50 (KDM6A (UTX)) |
| --- | --- | --- | --- | --- | --- | --- | --- | --- |
| > 2500 nM |  | 250 to 2500 nM | < 250 nM | > 2500 nM | CCN(CC)C(=O)CNCc1cc(/C=N/CCc2ccc(C)cc2)ccn1 [Compound 69, N,N-diethyl-2-[({4-[{[2-(4-methylphenyl)-ethyl]imino}-methyl]pyridin-2-yl}methyl)amino]-acetamide] |  |  |  |
| < 250 nM |  | > 2500 nM | < 250 nM | > 2500 nM | CCN(CC)CCCCNCc1cc(/C=N/CCCO)ccn1 [Compound 71, 3-[{[2-({[4-(diethylamino)-butyl]amino}methyl)pyridin-4-yl]methylidene}amino]-propan-1-ol] |  |  |  |
| < 250 nM | > 2500 nM | > 2500 nM | 250 to 2500 nM | > 2500 nM | CCN(CC)CCCCNCc1cc(C2NCC3(CCCC3)CO2)ccn1 (stereo not drawn) [Compound 72, [4-(diethylamino)-butyl][(4-{7-oxa-9-azaspiro[4.5]decan-8-yl}pyridin-2-yl)methyl]amine] |  |  |  |
| < 250 nM |  | > 2500 nM | < 250 nM |  | CCN(CC)CCCCNCc1cc(/C=N/C(C)CO)ccn1 (stereo not drawn) [Compound 73, 2-[{[2-({[4-(diethylamino)-butyl]amino}-methyl)pyridin-4-yl]methylidene}-amino]propan-1-ol] |  |  |  |
| < 250 nM |  | > 2500 nM | < 250 nM |  | CCN(CC)CCCCNCc1cc(/C=N/C(CO)c2ccccc2)ccn1 (stereo not drawn) [Compound 75, 2-[{[2-({[4-(diethylamino)-butyl]amino}-methyl)pyridin-4-yl]methylidene}-amino]-2-phenylethan-1-ol] |  |  |  |
| < 250 nM | > 2500 nM | > 2500 nM | 250 to 2500 nM |  | CCN(CC)CCCCNCc1cc(/C=N/CC(C)(C)CO)ccn1 [Compound 76, 3-[{[2-({[4-(diethylamino)-butyl]amino}-methyl)pyridin-4-yl]methylidene}-amino]-2,2-dimethylpropan-1-ol] |  |  |  |
| < 250 nM | > 2500 nM | 250 to 2500 nM | < 250 nM |  | CCN(CCN(C)C)C(=O)CNCc1cc(/C=N/CCCO)ccn1 [Compound 78, N-[2-(dimethylamino)-ethyl]-N-ethyl-2-[({4-[[(3-hydroxypropyl)imino]-methyl]pyridin-2-yl}-methyl)amino]-acetamide] |  |  |  |
| 250 to 2500 nM | 250 to 2500 nM | < 250 nM | < 250 nM | > 2500 nM | CCN(CC)CCCCNCc1cc(/C=N/CC(CO)Cc2ccccc2)ccn1 (stereo not drawn) [Compound 80, 2-{[{[2-({[4-(diethylamino)-butyl]amino}methyl)pyridin-4-yl]methylidene}-amino]methyl}-3-phenylpropan-1-ol] |  |  |  |
| < 250 nM | > 2500 nM | > 2500 nM | 250 to 2500 nM | > 2500 nM | CCN(CC)CCCCNCc1cc(/C=N/CC(O)Cc2ccccc2)ccn1 (stereo not drawn) [Compound 84, 1-[{[2-({[4-(diethylamino)-butyl]amino}methyl)pyridin-4-yl]methylidene}amino]-3-phenylpropan-2-ol] |  |  |  |
| < 250 nM | > 2500 nM |  | < 250 nM | > 2500 nM | CCN(CCN(C)C)C(=O)CNCc1cc(/C=N/CC(O)CN(C)C)ccn1 (stereo not drawn) [Compound 86, 2-[({4-[{[3-(dimethylamino)-2-hydroxypropyl]imino}-methyl]pyridin-2-yl}methyl)amino]-N-[2-(dimethylamino)-ethyl]-N-ethylacetamide] |  |  |  |
| < 250 nM | > 2500 nM | 250 to 2500 nM | < 250 nM |  | CCN(CCN(C)C)C(=O)CNCc1cc(C2NCC(C)(C)CO2)ccn1 (stereo not drawn) [Compound 87, 2-({[4-(5,5-dimethyl-1,3-oxazinan-2-yl)pyridin-2-yl]methyl}amino)-N-[2-(dimethylamino)-ethyl]-N-ethylacetamide] |  |  |  |
| < 250 nM | > 2500 nM | 250 to 2500 nM | < 250 nM | > 2500 nM | CCN(CCN(C)C)C(=O)CNCc1cc(/C=N/CC(CO)Cc2ccccc2)ccn1 (stereo not drawn) [Compound 89, 2-[({4-[[(2-benzyl-3-hydroxypropyl)imino]methyl]pyridin-2-yl}methyl)amino]-N-[2-(dimethylamino)ethyl]-N-ethylacetamide] |  |  |  |
| 250 to 2500 nM |  | 250 to 2500 nM | < 250 nM | > 2500 nM | CN(C)C1CCC(CNCc2cc(C=O)ccn2)C1 (stereo not drawn) [Compound 117, 2-[({[3-(dimethylamino)-cyclopenyl]methyl}-amino)methyl] pyridine-4-carbaldehyde] |  |  |  |

| SMILES | EC50 (MCF7 cells) | IC50 (KDM2B (FBXL10)) | IC50 (KDM4C (JMJD2C); [1]) | IC50 (KDM5B (PLU-1); [2]) | IC50 (KDM6A (UTX); [3]) | IC50 (KDM4C (JMJD2C)) | IC50 (KDM5B (PLU-1)) | IC50 (KDM6A (UTX)) |
| --- | --- | --- | --- | --- | --- | --- | --- | --- |
| CCOC(=O)c1ccccc1OC(=O)NCc1ccnc(CNCC(=O)N(CC)CCN(C)C)c1 [Compound 29, ethyl 2-({[(2-{[({[2-(dimethylamino)-ethyl](ethyl)-carbamoyl}methyl)-amino]methyl}pyridin-4-yl)methyl]-carbamoyl}-oxy)benzoate] | 250 to 2500 nM |  |  |  |  | > 2500 nM | 250 to 2500 nM | > 2500 nM |
| CCN(CCN(C)C)C(=O)CNCc1cc(CNC(=O)C(F)(F)C(F)(F)C(F)(F)F)ccn1 [Compound 31, N-[(2-{[({[2-(dimethylamino)ethyl] (ethyl)carbamoyl}-methyl)amino]methyl}-pyridin-4-yl)-methyl]-2,2,3,3,4,4,4-heptafluorobutanamide] | 250 to 2500 nM | > 2500 nM | > 2500 nM | 250 to 2500 nM | > 2500 nM |  |  |  |
